ChEMBL document CHEMBL1201862, “PubChem BioAssay data set” (2004)
The source made the active and inactive calls.

Legend:
Assay type in all cases: functional
[1] = biological target: Peroxisome proliferator-activated receptor gamma/Nuclear receptor coactivator 1 (Homo sapiens, UniProt P37231);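 also: agonist potency as compounds enhance coactivator SRC-1 recruitment to PPARgamma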
[2] = biological target: Peroxisome proliferator-activated receptor gamma/Nuclear receptor coactivator 3 (Homo sapiens, UniProt P37231);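 also: agonist potency for raising coactivator recruitment to the receptor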
[3] = biological target: Peroxisome proliferator-activated receptor gamma/Nuclear receptor coactivator 2 (Homo sapiens, UniProt P37231);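 also: agonist potency for raising coactivator recruitment to the receptor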
[4] = biological target: Peroxisome proliferator-activated receptor gamma/Nuclear receptor corepressor 2 (Homo sapiens, UniProt P37231+Q9Y618); assay: Counterscreen for NR2E3 inverse agonists: TR-FRET-based biochemical high throughput dose response assay to identify inverse agonists of the interaction between peroxisome proliferator-activated receptor gamma (PPARg) and nuclear receptor co-repressor 2 (NCOR2).
[5] = biological target: T1, Corticotropin-releasing factor receptor 2/Corticotropin-releasing factor-binding protein (Homo sapiens, UniProt P24387+Q13324); assay: Dose Response confirmation of uHTS hits for small molecule antagonists of the CRF-binding protein and CRF-R2 receptor complex.; conditions: read-out: IC50_Mean
T1 sequence (Q13324 whole entry): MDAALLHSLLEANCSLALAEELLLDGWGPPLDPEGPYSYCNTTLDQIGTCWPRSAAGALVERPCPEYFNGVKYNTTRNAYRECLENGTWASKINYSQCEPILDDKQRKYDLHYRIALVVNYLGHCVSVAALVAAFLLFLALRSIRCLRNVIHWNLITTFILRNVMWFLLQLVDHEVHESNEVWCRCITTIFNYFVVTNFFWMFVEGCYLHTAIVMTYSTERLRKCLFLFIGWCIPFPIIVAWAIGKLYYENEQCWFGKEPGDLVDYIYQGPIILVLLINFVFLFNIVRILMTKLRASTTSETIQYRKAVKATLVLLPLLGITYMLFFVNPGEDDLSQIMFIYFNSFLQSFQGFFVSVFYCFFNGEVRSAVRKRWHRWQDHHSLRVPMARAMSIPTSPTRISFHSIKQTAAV
T1 sequence (P24387 whole entry): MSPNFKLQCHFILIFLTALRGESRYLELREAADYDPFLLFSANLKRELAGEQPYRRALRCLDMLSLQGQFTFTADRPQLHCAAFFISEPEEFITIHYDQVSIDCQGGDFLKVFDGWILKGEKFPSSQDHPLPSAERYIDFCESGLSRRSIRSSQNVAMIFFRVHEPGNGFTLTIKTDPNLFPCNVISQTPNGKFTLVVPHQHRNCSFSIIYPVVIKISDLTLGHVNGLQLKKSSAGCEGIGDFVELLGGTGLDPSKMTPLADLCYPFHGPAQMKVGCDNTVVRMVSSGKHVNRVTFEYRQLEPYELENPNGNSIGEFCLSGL

[6] = biological target: Photoreceptor-specific nuclear receptor (Homo sapiens, UniProt Q9Y5X4); assay: NR2E3 inverse agonists, dose response, biochemical, TR-FRET (AID 463256)
[7] = biological target: T1, Corticotropin-releasing factor receptor 2/Corticotropin-releasing factor-binding protein; assay: activators of CRF receptor 2 with binding protein – uHTS hits, confirmation (AID 602473); conditions: read-out: EC50_Mean
[8] = Luminescence-based counterscreen assay for KLF5 inhibitors: dose response cell-based high throughput screening assay to identify cytotoxic compounds using the IEC-6 intestinal epithelial cell line. [Related pubchem assays: 1700 (Primary screen.), 1834 (Confirmation screen.), 1858 (Summary AID.), 1905 (Counterscreen.)]

Peroxisome proliferator-activated receptor gamma/Nuclear receptor coactivator 3, sequence (P37231 whole entry): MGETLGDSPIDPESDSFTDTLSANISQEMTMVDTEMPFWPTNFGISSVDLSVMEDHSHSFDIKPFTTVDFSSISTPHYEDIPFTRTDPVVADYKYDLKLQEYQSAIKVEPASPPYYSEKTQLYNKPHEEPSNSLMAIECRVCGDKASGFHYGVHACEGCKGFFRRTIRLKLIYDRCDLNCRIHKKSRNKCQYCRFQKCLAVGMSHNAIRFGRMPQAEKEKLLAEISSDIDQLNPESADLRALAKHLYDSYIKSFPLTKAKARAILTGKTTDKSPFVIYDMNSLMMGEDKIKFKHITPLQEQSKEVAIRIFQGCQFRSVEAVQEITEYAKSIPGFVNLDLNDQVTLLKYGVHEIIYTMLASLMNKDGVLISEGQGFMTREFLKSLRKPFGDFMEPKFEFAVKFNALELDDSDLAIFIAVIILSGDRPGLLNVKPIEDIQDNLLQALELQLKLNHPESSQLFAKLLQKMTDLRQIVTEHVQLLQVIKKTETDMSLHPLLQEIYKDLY
Peroxisome proliferator-activated receptor gamma/Nuclear receptor coactivator 3, sequence (Q9Y6Q9 whole entry, further chain): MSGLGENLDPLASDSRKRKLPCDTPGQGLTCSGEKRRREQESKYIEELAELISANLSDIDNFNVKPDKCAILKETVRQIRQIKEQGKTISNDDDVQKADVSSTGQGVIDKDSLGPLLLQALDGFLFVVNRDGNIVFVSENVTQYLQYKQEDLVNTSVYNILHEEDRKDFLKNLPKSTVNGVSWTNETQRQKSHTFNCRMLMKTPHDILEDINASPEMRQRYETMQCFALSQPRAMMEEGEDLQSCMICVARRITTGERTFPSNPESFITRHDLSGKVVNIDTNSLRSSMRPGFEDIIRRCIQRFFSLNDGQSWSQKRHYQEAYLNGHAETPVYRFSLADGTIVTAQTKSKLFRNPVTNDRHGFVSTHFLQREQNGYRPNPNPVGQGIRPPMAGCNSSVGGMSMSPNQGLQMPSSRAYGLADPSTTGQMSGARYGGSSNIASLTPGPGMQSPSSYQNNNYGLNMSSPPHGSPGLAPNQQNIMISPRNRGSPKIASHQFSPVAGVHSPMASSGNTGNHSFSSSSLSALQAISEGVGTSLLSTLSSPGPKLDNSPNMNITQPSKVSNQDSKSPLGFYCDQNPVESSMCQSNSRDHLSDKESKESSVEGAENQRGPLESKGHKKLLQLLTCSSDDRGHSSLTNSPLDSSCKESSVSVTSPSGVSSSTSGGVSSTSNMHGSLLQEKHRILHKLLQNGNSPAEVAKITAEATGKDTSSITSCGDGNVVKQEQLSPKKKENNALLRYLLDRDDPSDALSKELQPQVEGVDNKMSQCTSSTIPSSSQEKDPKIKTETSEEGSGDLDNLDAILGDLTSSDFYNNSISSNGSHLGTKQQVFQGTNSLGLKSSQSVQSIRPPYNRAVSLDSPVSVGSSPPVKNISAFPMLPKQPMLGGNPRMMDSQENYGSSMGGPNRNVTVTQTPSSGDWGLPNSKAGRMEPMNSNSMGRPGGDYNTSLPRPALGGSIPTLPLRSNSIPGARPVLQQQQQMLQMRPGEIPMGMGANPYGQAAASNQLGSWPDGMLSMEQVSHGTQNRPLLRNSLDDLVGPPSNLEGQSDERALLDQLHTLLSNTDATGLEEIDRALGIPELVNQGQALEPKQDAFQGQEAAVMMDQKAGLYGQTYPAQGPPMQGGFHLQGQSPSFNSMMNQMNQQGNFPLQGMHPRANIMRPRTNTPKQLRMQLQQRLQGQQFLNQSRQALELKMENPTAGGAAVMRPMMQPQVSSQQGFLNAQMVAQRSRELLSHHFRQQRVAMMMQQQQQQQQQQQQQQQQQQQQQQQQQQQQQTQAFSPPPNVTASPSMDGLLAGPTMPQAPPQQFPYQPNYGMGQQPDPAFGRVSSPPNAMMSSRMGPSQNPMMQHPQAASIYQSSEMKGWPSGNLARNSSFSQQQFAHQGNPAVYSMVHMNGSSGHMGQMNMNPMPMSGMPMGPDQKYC
Peroxisome proliferator-activated receptor gamma/Nuclear receptor coactivator 1, sequence (P37231 whole entry): as the sequence (P37231 whole entry) above
Peroxisome proliferator-activated receptor gamma/Nuclear receptor coactivator 1, sequence (Q15788 whole entry, further chain): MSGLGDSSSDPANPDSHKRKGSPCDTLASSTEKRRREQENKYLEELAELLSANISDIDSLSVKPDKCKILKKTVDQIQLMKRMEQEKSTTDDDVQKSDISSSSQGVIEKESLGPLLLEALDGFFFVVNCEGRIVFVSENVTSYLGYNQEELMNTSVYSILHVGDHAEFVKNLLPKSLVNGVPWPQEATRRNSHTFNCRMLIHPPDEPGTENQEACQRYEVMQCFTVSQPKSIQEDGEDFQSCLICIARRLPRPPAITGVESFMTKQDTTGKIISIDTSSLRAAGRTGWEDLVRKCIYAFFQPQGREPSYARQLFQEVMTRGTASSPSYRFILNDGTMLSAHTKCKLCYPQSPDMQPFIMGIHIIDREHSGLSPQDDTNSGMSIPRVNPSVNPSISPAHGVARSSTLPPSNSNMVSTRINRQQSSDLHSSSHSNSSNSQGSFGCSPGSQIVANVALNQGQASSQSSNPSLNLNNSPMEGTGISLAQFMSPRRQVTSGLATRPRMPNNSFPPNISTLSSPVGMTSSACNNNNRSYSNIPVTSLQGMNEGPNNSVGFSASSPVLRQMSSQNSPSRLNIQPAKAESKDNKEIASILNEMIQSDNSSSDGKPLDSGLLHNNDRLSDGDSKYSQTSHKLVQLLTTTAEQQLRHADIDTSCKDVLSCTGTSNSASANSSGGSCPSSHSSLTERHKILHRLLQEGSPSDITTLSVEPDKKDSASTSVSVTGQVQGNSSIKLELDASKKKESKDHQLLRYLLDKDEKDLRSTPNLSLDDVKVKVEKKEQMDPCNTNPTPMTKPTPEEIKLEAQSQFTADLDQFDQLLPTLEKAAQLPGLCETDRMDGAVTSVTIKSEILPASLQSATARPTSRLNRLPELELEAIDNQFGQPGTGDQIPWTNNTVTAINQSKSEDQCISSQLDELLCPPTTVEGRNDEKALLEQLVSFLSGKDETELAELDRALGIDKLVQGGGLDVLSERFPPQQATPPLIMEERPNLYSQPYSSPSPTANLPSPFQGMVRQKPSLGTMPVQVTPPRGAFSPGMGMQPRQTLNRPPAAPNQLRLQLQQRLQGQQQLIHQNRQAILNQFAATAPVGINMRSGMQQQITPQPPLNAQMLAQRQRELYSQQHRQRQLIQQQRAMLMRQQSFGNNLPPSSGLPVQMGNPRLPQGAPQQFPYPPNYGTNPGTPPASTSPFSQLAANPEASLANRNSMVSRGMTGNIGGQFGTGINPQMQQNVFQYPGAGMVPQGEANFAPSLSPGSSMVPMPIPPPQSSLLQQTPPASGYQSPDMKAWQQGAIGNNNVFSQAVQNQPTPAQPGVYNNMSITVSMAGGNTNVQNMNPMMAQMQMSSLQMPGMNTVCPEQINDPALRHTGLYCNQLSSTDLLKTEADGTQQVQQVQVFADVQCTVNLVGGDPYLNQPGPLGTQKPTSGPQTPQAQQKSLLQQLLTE
Photoreceptor-specific nuclear receptor, sequence (Q9Y5X4 whole entry): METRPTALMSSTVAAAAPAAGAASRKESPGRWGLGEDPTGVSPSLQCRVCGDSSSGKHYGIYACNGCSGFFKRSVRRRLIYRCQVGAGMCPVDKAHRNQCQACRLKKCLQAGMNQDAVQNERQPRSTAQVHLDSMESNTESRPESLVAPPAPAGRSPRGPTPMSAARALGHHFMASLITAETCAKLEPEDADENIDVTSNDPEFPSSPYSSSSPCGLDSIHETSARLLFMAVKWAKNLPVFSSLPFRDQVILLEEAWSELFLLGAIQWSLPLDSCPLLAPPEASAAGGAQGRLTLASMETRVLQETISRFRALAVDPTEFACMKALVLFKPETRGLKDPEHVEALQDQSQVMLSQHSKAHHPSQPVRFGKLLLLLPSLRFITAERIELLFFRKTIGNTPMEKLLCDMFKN

In the case of `Cc1cc(C)c(S(=O)(=O)Nc2ccc3[nH]c(O)nc3c2)c(C)c1`, the EC50 [1] is reported as > 79.4 µM (not active), the EC50 [2] is reported as > 79.4 µM (not active) and the EC50 [3] is reported as > 79.4 µM (not active).
In the case of `CC(=O)c1ccc(NC(=O)CSc2ccc(-c3ccc4c(c3)OCO4)nn2)cc1`, the IC50 [4] is reported as 2.9 µM (active), the IC50 [5] is reported as > 47.1 µM (inactive) and the IC50 [6] is reported as 3.53 µM (active). For the same compound, the EC50 [7] was > 53 µM (inactive).
With `COc1ccc2nc(SCC(=O)NC3CCCC3)c(C)cc2c1` the IC50 [8] was 16 µM (not active).
